Measured values reported in patent US10378058B2, “Diagnostic and therapeutic methods and compositions involving PTEN and breast cancer” (Board of Regents of The University of Texas System, priority 2003, dated 2019).
“Also recorded” adds a separate entry of the source.

Tests used:
SKBr3 cells = test: Cell proliferation of SKBr3 cells (MTS assay); type: cell-based, human; conditions: PTEN AS alone without trastuzumab, vs MIS
Description: (§1) Cell viability assay. Cells were seeded at 1-5×10^3 cells/well in 96-well plates after oligonucleotide transfection. Viable cells were determined by CellTiter 96 AQueous Non-Radioactive Cell Proliferation Assay (Promega, Madison, Wis.).

PTEN [1] = test: PTEN expression in BT474 xenografts injected with oligonucleotides; type: in vivo, mice; conditions: intratumor injection 15 μg/injection twice a week for 1 week, ErbB2 expression remained the same
Description: Animal experiment. Female athymic nude mice (Harlan Sprague Dawley, Indianapolis, Ind.) were implanted with 0.72-mg 60-day-release 17β-estradiol pellets (Innovative Research, Sarasota, Fla.) and irradiated at 3.5 Gy prior to inoculation. BT474 cells (8×10^6) in 200 μl of PBS and Matrigel (BD Biosciences, Bedford, Mass.) mixture (1:1 ratio) were injected subcutaneously into a mouse mammary fat pad (mfp). When the mfp tumor volume reached >150 mm^3, the tumor was treated with PTEN antisense or control mismatched oligonucleotides (30 μg/week) in saline. […] Tumor diameters were serially measured with calipers and tumor volumes calculated: volume=width^2×length/2. Each treatment group contained 8-12 mice. Unpaired Student's t-test was used to assess statistical significance.

PTEN [2] = test: PTEN expression after antisense transfection in vitro; type: cell-based, human; conditions: SKBr3 cells, 25 nM, vs mock or mismatched (MIS) oligonucleotides
Description: Antisense Delivery in vitro. Antisense oligonucleotides against PTEN (ISIS116847: 5′-[…]-3′) (SEQ ID NO:3) and control oligonucleotides (ISIS 116848: 5′-[…]-3′ (SEQ ID NO:4), with six base mismatches to ISIS 116847) have been described (Butler et al., 2002). Cells were plated in 100-mm dishes at 30% confluence and transfected with oligonucleotides (12.5 nM for BT474 and 25 nM for SKBr3 cells) twice using Oligofectamine (Life Technologies, Rockville, Md.) 24 and 72 h post-plating. Ninety-six hours post-plating, cells were re-plated for individual assays described in this report. PTEN expression was determined 120 h post-plating (FIG. 2A).
(§2) Preparation of Cell Lysates, Immunoprecipitation, and Western Blot Analysis. Cells at 70%-80% confluence were treated with each reagent indicated in the individual experiments. For PTEN phosphotyrosine immunoblots, ErbB2 IP, and Src IP, cells were treated with 30 mM pervanadate for 10 min as described (Lu et al., 2003). Unless noted, cells were washed with PBS and lysed in IP buffer with protease inhibitor cocktail (Sigma Chemical Co., St. Louis, Mo.). Immunoprecipitation and Western blot analysis were performed (Yu et al., 1998).

Src = target: T1, Src (Homo sapiens, UniProt P12931); test: Src-Y416 phosphorylation in 435.eB cells; type: cell-based; conditions: vs solvent 10% DMSO
T1 construct: endogenous in cells; host or cells: 435.eB cells
Description: as §2

PTEN [3] = test: PTEN tyrosine phosphorylation in 435.eB cells; type: cell-based; conditions: vs solvent 10% DMSO
Description: as §2

BT474 cells = test: Cell viability assay of BT474 cells; type: cell-based, human; conditions: paclitaxel alone without trastuzumab
Description: as §1

T1 sequence (P12931 whole entry): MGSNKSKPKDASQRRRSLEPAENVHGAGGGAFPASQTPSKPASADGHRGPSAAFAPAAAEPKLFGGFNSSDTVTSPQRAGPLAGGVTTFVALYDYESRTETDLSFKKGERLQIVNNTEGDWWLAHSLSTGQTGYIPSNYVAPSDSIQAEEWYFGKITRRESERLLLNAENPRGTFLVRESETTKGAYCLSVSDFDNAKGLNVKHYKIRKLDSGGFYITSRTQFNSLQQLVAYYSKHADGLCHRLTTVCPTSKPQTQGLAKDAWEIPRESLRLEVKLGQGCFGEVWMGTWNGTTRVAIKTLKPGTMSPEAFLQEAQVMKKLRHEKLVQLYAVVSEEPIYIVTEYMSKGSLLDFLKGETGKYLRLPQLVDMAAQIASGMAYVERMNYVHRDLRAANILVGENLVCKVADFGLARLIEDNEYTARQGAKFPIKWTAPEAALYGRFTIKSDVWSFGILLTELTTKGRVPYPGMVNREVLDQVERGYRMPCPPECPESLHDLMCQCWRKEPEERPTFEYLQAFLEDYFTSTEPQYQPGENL

What does the source list for “PTEN AS: Antisense oligonucleotides against PTEN, 5′-CTGCTAGCCTCTGGATTTGA-3′ (SEQ ID NO:3) (listed as DNA, chemistry not given here)”?
cell proliferation (SKBr3 cells): no significant effect on cell proliferation; PTEN expression in tumor xenografts (PTEN [1]): effectively inhibited; also recorded: reduced; endogenous PTEN expression (PTEN [2]): inhibited endogenous PTEN expression; also recorded: reduced

CC(C)(C)n1nc(-c2ccc(Cl)cc2)c2c(N)ncnc21 [PP2] was tested. Which “Src phosphorylation on Y416” value (Src) did it give?
The value was “effectively inhibited Src phosphorylation on Y416”.

What about the “tyrosine phosphorylation of PTEN” value (PTEN [3]) of the same compound?
The value was “dramatically reduced tyrosine phosphorylation of PTEN”.

For CC(=O)O[C@H]1C(=O)[C@@]2(C)[C@H]([C@H](OC(=O)c3ccccc3)[C@]3(O)C[C@H](OC(=O)[C@H](O)[C@@H](NC(=O)c4ccccc4)c4ccccc4)C(C)=C1C3(C)C)[C@]1(OC(C)=O)CO[C@@H]1C[C@@H]2O [paclitaxel], which “cell viability, PTEN AS-transfected vs MIS control-transfected cells” value (BT474 cells) is on record?
The value was “no statistically significant difference in cell viability”.
